Source: the supplement of paper PMC8960247
Structures can show the parent of a compound that is named as a salt. ± gives the standard error.

tested on: 621-102 (TSC2-deficient); assay: relative viability vs DMSO; higher = less cytotoxic; details: 0.1 µM; serum: 10% FBS; 72 h
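Also: immortalized renal angiomyolipoma cells stably carrying empty vector or TSC2, dosed in 384-well plates in DMEM, viability normalized to vehicle-treated wells within each plate.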

| SMILES | relative viability |
| --- | --- |
| CCN1CCN(C(=O)Cc2ccc(Nc3ncc(F)c(Nc4ccc(C(=O)Nc5ccccc5Cl)cc4)n3)cc2)CC1 [Aurora A Inhibitor I] | 105 ± 2.2% |
| CC(C)c1cc(C(C)C)c(CC(=O)NS(=O)(=O)Oc2c(C(C)C)cccc2C(C)C)c(C(C)C)c1 [Avasimibe (CI-1011)] | 99.6 ± 1.3% |
| CNC(=O)c1ccccc1Sc1ccc2c(/C=C/c3ccccn3)n[nH]c2c1 [Axitinib] | 109 ± 3.8% |
| CN1CCCC(n2nc(Cc3ccc(Cl)cc3)c3ccccc3c2=O)CC1 (configuration not stated) [Azelastine HCl (Astelin)] | 109 ± 1.6% |
| CNC(=O)c1cc(Oc2ccc(NC(=O)Nc3ccc(Cl)c(C(F)(F)F)c3)c(F)c2)ccn1 [BAY 73-4506 (Regorafenib)] | 98.4 ± 2.8% |
| CC[C@@H]1C(=O)N(C)c2cnc(Nc3ccc(C(=O)N[C@H]4CC[C@H](N5CCN(CC6CC6)CC5)CC4)cc3OC)nc2N1C(C)C [BI6727 (Volasertib)] | 42.4 ± 0.63% |
| CC[C@@H]1C(=O)N(C)c2cnc(Nc3ccc(C(=O)NC4CCN(C)CC4)cc3OC)nc2N1C1CCCC1 [BI 2536] | 44.6 ± 1.5% |
| COC(=O)c1ccc2c(C(=Nc3ccc(N(C)C(=O)CN4CCN(C)CC4)cc3)c3ccccc3)c(O)[nH]c2c1 [BIBF1120 (Vargatef)] | 108 ± 3.1% |
| C/C(=C\C(=O)Nc1ccccc1C(=O)O)c1ccc2ccccc2c1 [BIBR1532] | 105.7 ± 1% |
| Cn1c(CNc2ccc(C(=N)N)cc2)nc2cc(C(=O)N(CCC(=O)O)c3ccccn3)ccc21 [BIBR 953] | 88.6 ± 4.5% |
| CCCCCCOC(=O)NC(=N)c1ccc(NCc2nc3cc(C(=O)N(CCC(=O)OCC)c4ccccn4)ccc3n2C)cc1 [BIBR-1048] | 96.8 ± 4.4% |
| CN(C)C/C=C/C(=O)Nc1cc2c(Nc3ccc(F)c(Cl)c3)ncnc2cc1O[C@H]1CCOC1 [BIBW2992 )Tovok)] | 108 ± 3.2% |
| COc1c(C)cnc(Cn2cnc3c(Cl)nc(N)nc32)c1C [BIIB021] | 79 ± 2.7% |
| Cc1ccc(-n2nc(C(C)(C)C)cc2NC(=O)Nc2ccc(OCCN3CCOCC3)c3ccccc23)cc1 [BIRB 796] | 103.8 ± 0.27% |
| Nc1cc(C(F)(F)F)c(-c2cc(N3CCOCC3)nc(N3CCOCC3)n2)cn1 [BKM120 (NVP-BKM120)] | 92.9 ± 2.6% |
| COc1ccccc1N1CCN(CCN2C(=O)CC3(CCCC3)CC2=O)CC1 [BMY 7378] | 104.4 ± 0.88% |
| CC(C)c1cnn2c(NCc3ccccc3)cc(NCCCCCCN)nc12 [BS-181] | 94.74 ± 0.88% |
| NC(=O)c1ccc(I)c([N+](=O)[O-])c1 [BSI-201] | 116.12 ± 0.099% |
| O=C(O)[C@H]1O[C@@H](Oc2cc3oc(-c4ccccc4)cc(=O)c3c(O)c2O)[C@H](O)[C@@H](O)[C@@H]1O [Baicalin] | 106 ± 1.6% |
| CCOC(=O)[C@H](CCc1ccccc1)N[C@H]1CCc2ccccc2N(CC(=O)O)C1=O [Benazepril HCl] | 81.1 ± 7.4% |
| NC(CO)C(=O)NNCc1ccc(O)c(O)c1O (configuration not stated) [Benserazide HCl] | 107 ± 1.3% |
| CC(C[N+](C)(C)C)OC(N)=O (configuration not stated) [Bethanechol chloride] | 103.4 ± 0.49% |
| CC(O)(CS(=O)(=O)c1ccc(F)cc1)C(=O)Nc1ccc(C#N)c(C(F)(F)F)c1 (configuration not stated) [Bicalutamide (Casodex)] | 102 ± 2.8% |
| COc1cc(Nc2c(C#N)cnc3cc(OCCCN4CCN(C)CC4)c(OC)cc23)c(Cl)cc1Cl [Bosutinib (SKI-606)] | 103 ± 7.9% |
| CCCCN1CCCCC1C(=O)Nc1c(C)cccc1C (configuration not stated) [Bupivacaine HCl (marcain)] | 93.5 ± 1.1% |
| CC[C@H](Nc1ncnc2[nH]cnc12)c1nc2cccc(F)c2c(=O)n1-c1ccccc1 [CAL-101] | 106 ± 3% |
| O=C(O)c1ccc2c(c1)nc(Nc1cccc(Cl)c1)c1ccncc12 [CX-4945] | 103.8 ± 0.2% |
| Cc1nc(N)sc1-c1ccnc(Nc2ccc(N3CCOCC3)cc2)n1 [CYC116] | 100.4 ± 0.47% |

same assay, conditions: 1 µM; serum: 10% FBS; 72 h

| SMILES | relative viability |
| --- | --- |
| CCN1CCN(C(=O)Cc2ccc(Nc3ncc(F)c(Nc4ccc(C(=O)Nc5ccccc5Cl)cc4)n3)cc2)CC1 [Aurora A Inhibitor I] | 104 ± 1.4% |
| CC(C)c1cc(C(C)C)c(CC(=O)NS(=O)(=O)Oc2c(C(C)C)cccc2C(C)C)c(C(C)C)c1 [Avasimibe (CI-1011)] | 104.3 ± 0.53% |
| CNC(=O)c1ccccc1Sc1ccc2c(/C=C/c3ccccn3)n[nH]c2c1 [Axitinib] | 103.5 ± 0.7% |
| CN1CCCC(n2nc(Cc3ccc(Cl)cc3)c3ccccc3c2=O)CC1 (configuration not stated) [Azelastine HCl (Astelin)] | 106.8 ± 0.17% |
| CNC(=O)c1cc(Oc2ccc(NC(=O)Nc3ccc(Cl)c(C(F)(F)F)c3)c(F)c2)ccn1 [BAY 73-4506 (Regorafenib)] | 102 ± 1.4% |
| CC[C@@H]1C(=O)N(C)c2cnc(Nc3ccc(C(=O)N[C@H]4CC[C@H](N5CCN(CC6CC6)CC5)CC4)cc3OC)nc2N1C(C)C [BI6727 (Volasertib)] | 41.9 ± 0.7% |
| CC[C@@H]1C(=O)N(C)c2cnc(Nc3ccc(C(=O)NC4CCN(C)CC4)cc3OC)nc2N1C1CCCC1 [BI 2536] | 51.66 ± 0.21% |
| COC(=O)c1ccc2c(C(=Nc3ccc(N(C)C(=O)CN4CCN(C)CC4)cc3)c3ccccc3)c(O)[nH]c2c1 [BIBF1120 (Vargatef)] | 105 ± 1.7% |
| C/C(=C\C(=O)Nc1ccccc1C(=O)O)c1ccc2ccccc2c1 [BIBR1532] | 95.36 ± 0.93% |
| Cn1c(CNc2ccc(C(=N)N)cc2)nc2cc(C(=O)N(CCC(=O)O)c3ccccn3)ccc21 [BIBR 953] | 82.7 ± 9.1% |
| CCCCCCOC(=O)NC(=N)c1ccc(NCc2nc3cc(C(=O)N(CCC(=O)OCC)c4ccccn4)ccc3n2C)cc1 [BIBR-1048] | 107 ± 6.2% |
| CN(C)C/C=C/C(=O)Nc1cc2c(Nc3ccc(F)c(Cl)c3)ncnc2cc1O[C@H]1CCOC1 [BIBW2992 )Tovok)] | 91.85 ± 0.61% |
| COc1c(C)cnc(Cn2cnc3c(Cl)nc(N)nc32)c1C [BIIB021] | 33.3 ± 1.2% |
| Cc1ccc(-n2nc(C(C)(C)C)cc2NC(=O)Nc2ccc(OCCN3CCOCC3)c3ccccc23)cc1 [BIRB 796] | 103 ± 4.7% |
